From US4581359A, “Pharmacological treatments with N-7-substituted derivatives of theophylline” (priority 1984, dated 1986)
“And” between values parts separate entries of the source, which are not always exact repeats. Equal entries are not always repeated. Where two headings read alike, the source gives them in different places.

How the values were obtained:
[1] = tested on: mediator-induced broncoconstriction; conditions: cited from earlier work
[2] = in vivo; cited from earlier work
[3] = cited from earlier work
[4] = Concomitant dyphylline and aminophylline in two horses: plasma concentration, blood pressure, pulse (Example 3); conditions: for Cmax: peak plasma concentration of theophylline
Procedure: Two horses were administered dyphylline and aminophylline concomitantly.
The second horse was given a bolus injection of dyphylline (20 mg/kg as 100 mg/ml solution in D5W) over 15 seconds into the jugular vein. Aminophylline infusion (10 mg/kg dissolved in one liter of D5W) was started immediately and administered over 20 minutes.

[5] = Fatal toxicity of theophylline, repeated aminophylline infusion in rabbits (Example 1); assay type: in vivo, female New Zealand White rabbits; conditions: for Vd: rabbit, blood, iv
Procedure: Aminophylline (40 mg/kg) was infused into four rabbits over fifteen minutes once every two hours until the rabbits died. After the first infusion, blood concentrations of theophylline averaged about 100 mcg/ml in all four rabbits. […] In the second period total xanthine blood concentrations of theophylline averaged about 250 mcg/ml. Three rabbits died in this period with theophylline blood concentrations of about 250 mcg/ml. One rabbit died shortly after the third infusion which gave a blood theophylline concentration of about 400 mcg/ml. […] The last blood sample for each rabbit was collected immediately after the rabbit died.

[6] = Theophylline (aminophylline) intravenous infusion in rabbits: blood concentration, pharmacokinetics, toxicity (Example 1); assay type: in vivo, female New Zealand White rabbits; conditions: for visible toxicity: aminophylline 40 mg/kg over 15 minutes, three rabbits
Procedure: Analytical grade chemicals were used without further purification. All water was distilled prior to use. 250 mg/10 ml aminophylline injection (Searle Laboratories, Chicago, Ill.) was diluted with an appropriate amount of distilled water for injection. Dyphylline powder (Lemmon Company, Sellersville, Pa.) was dissolved in distilled water for injection.
A high-pressure liquid chromatographic (HPLC) system consisted of a delivery pump (M-6000A, Waters Associates, Milford, Mass.), sample injection apparatus (Model U6K, Waters Associates, Milford, Mass.), 30-cm reverse phase column (μBondapak C18, Waters Associates, Milford, Mass.), UV detector (Model 440, Waters Associates, Milford, Mass.) with wavelength of 280 nm and a dual pen recorder (Soltec Co., Encino, Calif.) which were used at ambient temperature.
The internal standard used was β-hydroxypropyl theophylline (Aldrich Chemical Co., Inc., Milwaukee, Wis.) in acetonitrile which was prepared in a 500 ml volumetric flask as a stock solution, and kept tightly sealed except during use throughout the experiment. Internal standard solution (0.4 ml) was added to an equal volume (0.4 ml) of sample to precipitate protein. After centrifuging for 10 minutes, the supernatant was injected into the HPLC. The HPLC operating conditions included a mobile phase composed of acetonitrile (6 percent V/V) in distilled water and a flow rate of 2.0 ml/min.
A typical semilogrithmic plot of a blood theophylline concentration versus time curves, for each of the three rabbits after a zero-order aminophylline infusion of 40 mg/kg over fifteen minutes, is shown in FIG. 2. The data were fitted to a two-compartment open pharmacokinetic model with first order elimination using PROPHET (PROPHET computer system, FIT FUN routine, Director, Chemical/Biological Information Handling Program, Division of Research Resources, NIH, Bethesda, MD.) The parameters generated from three rabbits were corrected for infusion time, (as described by Gibaldi) and are listed in Table II.

[7] = Single and combined intravenous methyl xanthines in rabbits: heart rate, deaths, plasma concentrations (Example 6); assay type: in vivo, female rabbits; conditions: for heart rate, individual drug treatment: one rabbit each, normal about 220 bpm
Procedure: T 40 mg/kg of aminophylline infused at the rate of 0.21 ml/min over 30
T/D 40 mg/kg of aminophylline infused at the rate of 0.21 ml/min over 30
T/E 40 mg/kg of aminophylline infused at the rate of 0.21 ml/min over 30
T/P 40 mg/kg of aminophylline infused at the rate of 0.21 ml/min over 30

[8] = cited from earlier work; remark: listed apart in the source
[9] = Plasma and cerebral spinal fluid concentrations in an anesthetized horse (Example 4); conditions: 0, 30 mins, 1 hour, 2 hours, 3 hours, 4 hours, 24 hours; for Cerebral spinal fluid concentration, theophylline: aminophylline 10 mg/kg + dyphylline 20 mg/kg bolus
Procedure: (§1) One horse was administered acetyl promazine thiamyol sodium, quaifensin, and halothane to produce general anesthesia. Dyphylline (20 mg/kg) was given as an intravenous bolus injection in less than 15 seconds and aminophylline (10 mg/kg) was given as an infusion over about 20 minutes. Plasma and cerebral spinal fluid were collected and assayed by high pressure liquid chromatography for both dyphylline and theophylline.

[10] = Winter; cited from earlier work
[11] = in vivo
Procedure: as §1

[12] = cited from earlier work; remark: listed apart in the source
[13] = Concurrent administration of theophylline and dyphylline in rabbits: pharmacokinetics and toxicity (Example 1); conditions: rabbit, iv, 40 mg/kg
Procedure: All experiments of this example were performed using female New Zealand White rabbits. These rabbits (2.4-3.6 kg) were housed in a controlled environment and allowed free access to water and food.
Before dosing with drug the rabbit ear hair was clipped and treated with hair remover lotion (sold under the trademark NAIR, Carter-Wallace, Inc., New York, N.Y.), a catheter (Quick-Cath, 20 Ga, Travenol Laboratories, Inc., Deerfield, Ill.) and sterile intermittent infusion plug were then inserted in the rabbit's ear vein for infusion. […] For each separate administration of theophylline, a suitable amount of aminophylline (40 mg/kg) was dissolved in distilled water to make 10 ml injectable solution which was administered into a rabbit's ear vein as a continuous infusion over a period of 15 minutes.
Blood samples were collected from an ear vein (in the opposite ear from the infusion) at predetermined time intervals. Before collecting each sample, the rabbit ear was treated topically with xylene to dilate the ear vein for convenient sample collection. Immediately after each blood sample was drawn, 0.4 ml of blood was transfered to the centrifuge tube and 0.4 ml of acetronitrile with appropriate internal standard was added to precipitate the protein and extract drug components. After vortexing well, the blood acetonitrile mixture was centrifuged at 3000×G for ten minutes, and 10 μl of supernatent solution was then injected into the HPLC.
The post infusion data of theophylline were fitted to a two-compartment open model using the same procedure as described above. Although samples were collected while infusion of dyphylline was continuing, only post infusion data were used for dyphylline pharmacokinetic analysis.

Cn1c(=O)c2c(ncn2CC(=O)O)n(C)c1=O [acephylline, 1,3-dimethylxanthinylacetic acid]
efficacy against mediator-induced broncoconstriction ([1]; guinea-pigs): ineffective
oral absorption [2]: not absorbed orally
conversion to theophylline in the body ([3]; literature): not converted to theophylline in the body

Cn1c(=O)c2[nH]cnc2n(C)c1=O [aminophylline]
Pulse, Horse 1 ([4]; 10 min to 240 min as for systolic, Horse 1, time 0: 42): 44 beats per minute and 60 beats per minute and 56 beats per minute
Blood pressure Mean, Horse 1 ([4]; 10 min to 240 min as for systolic, Horse 1, time 0: 119): 106 and 156 and 123
Blood pressure D, Horse 1 ([4]; 10 min to 240 min as for systolic, Horse 1, time 0: 156/98): 83 and 117 and 90
toxicity and death ([5]; aminophylline 40 mg/kg every two hours until death): All the rabbits died following a short period of severe convulsions
visible toxicity [6]: caused some visible toxicity but was not lethal

Cn1c(=O)c2c(ncn2CCO)n(C)c1=O [etophylline, β-hydroxyethylthophylline]
activity relative to theophylline ([1]; based on effective plasma drug concentrations): 0.44 times theophylline
heart rate, individual drug treatment [7]: 100 bpm
conversion to theophylline in the body ([3]; in vivo): not converted to theophylline in the body

CC(O)Cn1cnc2c1c(=O)n(C)c(=O)n2C (stereo not drawn) [proxyphylline, 7-β-hydroxypropyl-theophylline]
plasma concentration of proxyphylline ([8]; combined with theophylline and dyphylline (Bracher; Werdermann)): less than 9.0 mcg/ml
plasma concentration, each drug ([8]; dyphylline and proxyphylline (Joos et al.), 90 min): about 13 mcg/ml
heart rate, individual drug treatment [7]: about 96 bpm

Cn1c(=O)c2[nH]cnc2n(C)c1=O [theophylline]
Cerebral spinal fluid concentration, theophylline [9]: 0 µg/mL
Cerebral spinal fluid concentration, theophylline ([9]; 10 mg/kg): 5.3 µg/mL
Plasma concentration, theophylline ([9]; aminophylline 10 mg/kg over 20 min + dyphylline 20 mg/kg bolus): 0 µg/mL
total volume of distribution, average [10]: about 0.48 L/kg
concentration at 40 min ([4]; horse, in vivo, iv, 10 mg/kg): 9000 to 10000 ng/mL
Cmax ([4]; horse, in vivo, iv, 10 mg/kg, first horse, aminophylline 10 mg/kg over 17 minutes, dyphylline 20 mg/kg bolus at 40 minutes): 18000 ng/mL
Cmax ([4]; horse, in vivo, iv, 10 mg/kg, second horse, dyphylline 20 mg/kg bolus then aminophylline 10 mg/kg over 20 minutes): 35000 ng/mL
penetration into cerebral spinal fluid [11]: penetrate into cerebral spinal fluid
effective plasma concentration ([12]; humans): 10 to 20 µg/mL
effectiveness and toxicity, dyphylline versus theophylline ([12]; literature): more effective and toxic than dyphylline
effects of excessive dose or too rapid administration ([12]; total dose in less than about twenty minutes): blood pressure drop and may develop convulsions which in some instances lead to death
average blood concentration of theophylline after first infusion ([5]; four rabbits, all survived first period, 40 mg/kg): about 100 mcg/ml
volume of distribution (Vd), individual rabbits ([5]; from FIG. 3 data 1 to 2 hours, prior to second infusion, 40 mg/kg): 0.32 L/kg and 0.33 L/kg
blood theophylline concentration after third infusion (rabbit died) ([5]; one rabbit, 40 mg/kg): about 400 mcg/ml
Vd ([5]; 40 mg/kg, from FIG. 3 data 1 to 2 hours, prior to second infusion, read-out: volume of distribution (Vd), individual rabbits): 0.37 L/kg
Vd ([5]; 40 mg/kg, from FIG. 3 data 1 to 2 hours, four rabbits, read-out: volume of distribution (Vd), average): 0.35 L/kg
average blood concentration of theophylline, second period (three rabbits died) ([5]; second infusion, 40 mg/kg): about 250 mcg/ml
theophylline concentration causing convulsions and death ([5]; theophylline alone): ~250 µg/mL
Vd ([13]; in vivo, Vd(B), theophylline followed by dyphylline, b237, b241, b245, b249 rabbits 45-48, b250 mean): 0.35 L/kg
concentration at 0.25 h [13]: ~150 µg/mL
Vd ([13]; Vc): 0.151 L/kg
Vd ([13]; Vd(B)): 0.403 L/kg
half-life ([13]; average half-life of theophylline): 360 to 390 min
Vd ([13]; average total volume of distribution of theophylline given with dyphylline): ~0.35 L/kg
toxicity ([7]; rabbits): close to lethal
visible toxicity [6]: one rabbit exhibited obvious signs of theophylline toxicity
t1/2 ([6]; aminophylline 40 mg/kg, alone, rabbits 29, 30, 32, mean, 40 mg/kg): 6.3 h and 6.861 h and 6.30 h
Vd ([6]; rabbit, in vivo, iv, 40 mg/kg, Vd): 0.279 L/kg
Vd ([6]; rabbit, in vivo, iv, 40 mg/kg, Vel (β)): 0.562 L/kg
half-life ([6]; rabbit, in vivo, iv, 40 mg/kg, aminophylline 40 mg/kg, alone, rabbits 29, 30, 32, mean): 344 min
concentration at 0.25 h ([6]; rabbit, in vivo, iv, 40 mg/kg, average blood concentration of theophylline immediately after stopping the infusion, Table II rabbits): ~100 µg/mL
Vd ([6]; rabbit, in vivo, iv, 40 mg/kg, average total volume of distribution of theophylline given alone): ~0.59 L/kg
concentration at 0.25 h ([6]; rabbit, in vivo, iv, 40 mg/kg, blood concentration of theophylline when the infusion was stopped): 110 to 130 µg/mL
k el ([6]; rabbit, in vivo, iv, 40 mg/kg, k10): 6.75e-05 s⁻¹
tissue distribution ([3]; literature): penetrate the central nervous system, to infiltrate heart tissue and to distribute to lung tissue
